# Several values for one entry are separate records, joined by “and”; a condition that tells them apart may be missing. Equal values may be shown once. Read-outs that look alike come from different tables or passages of the source.
# Columns and labels:
# [1] = test system: HCT-116; assay: Cytotoxicity assay (SRB), HCT-116; format: cell-based; settings: Homo sapiens, HCT-116, 72 h, read-out: In Vitro Cellular Activity IC50 HCT116
# Procedure, shortened: (§1)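 Plate cells, let them attach overnight, add compound dilutions in RPMI 1640/5% FBS, and incubate 3 days (BT474 6 days). Then fix with TCA, stain with SRB, dissolve the dye in Tris and read at 540 nm.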
# [2] = test system: MCF-7; assay: Cytotoxicity assay (SRB), MCF-7; format: cell-based; settings: Homo sapiens, MCF7, 72 h, read-out: In Vitro Cellular Activity IC50 MCF-7
# Procedure, shortened: as §1
# [3] = test system: BT474; assay: Cytotoxicity assay (SRB), BT474; format: cell-based; settings: Homo sapiens, BT-474, 144 h, read-out: In Vitro Cellular Activity IC50 BT474
# Procedure, shortened: as §1
# [4] = target: T1, cyclin B/CDK1 enzyme (Homo sapiens, UniProt P06493); assay: CDK1 ELISA kinase assay (phospho-Rb ser 795 detection); format: biochemical
# T1 construct: purchased New England BioLabs; host or cells: Sf9 insect cells, recombinant baculovirus
# Procedure, shortened: (§2)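 Screening was done at 10 ug/ml compound. Each partially purified cyclin/CDK complex, produced in baculovirus-infected Sf9 cells, phosphorylated a coated GST-Rb C-terminal fragment with 200 μM ATP, and Ser795 phosphorylation was quantified by HRP-ELISA at 450 nm.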
# [5] = test system: LoVo; assay: Cytotoxicity assay (SRB), LoVo; format: cell-based; settings: Homo sapiens, LoVo, 72 h, read-out: In Vitro Cellular Activity IC50 LOVO
# Procedure, shortened: as §1
# [6] = I.V. and P.O. Dosing in Mice; format: in vivo; settings: for AUC(0-inf) / bioavailability: mouse, in vivo; for bioavailability: po 50 mg/kg vs i.v. 2 mg/kg
# [7] = target: T2, cyclin E/CDK2 enzyme (Homo sapiens, UniProt P24941); assay: CDK2 ELISA kinase assay (phospho-Rb ser 795 detection); format: biochemical
# T2 construct: made in house; host or cells: Sf9 insect cells, recombinant baculovirus
# Procedure, shortened: as §2
# [8] = target: T3, cyclin D1/cdk 4 enzyme (Homo sapiens, UniProt P11802); assay: CDK4 ELISA kinase assay (phospho-Rb ser 795 detection); format: biochemical
# T3 construct: made in house; host or cells: Sf9 insect cells, recombinant baculovirus
# Procedure, shortened: as §2
# [9] = In Vitro Enzyme Assays, read-out: CDK1 IC50
# [10] = iv, 2 mg/kg, dose i.v. 2 mg/kg, read-out: aucinf obs (i.v.)
# [11] = po, 50 mg/kg, dose po 50 mg/kg, read-out: aucinf obs (po)
# [12] = dose i.v. 2 mg/kg, second value, (methocel/tween)
# [13] = In Vitro Enzyme Assay, cyclin E/CDK2, read-out: CDK2 IC50
# [14] = In Vitro Enzyme Assay, cyclin D1/cdk 4, read-out: CDK4 IC50
# [15] = In Vitro Enzyme Assay, cyclin B/CDK1, read-out: CDK1 IC50
# T1 sequence (P06493 whole entry): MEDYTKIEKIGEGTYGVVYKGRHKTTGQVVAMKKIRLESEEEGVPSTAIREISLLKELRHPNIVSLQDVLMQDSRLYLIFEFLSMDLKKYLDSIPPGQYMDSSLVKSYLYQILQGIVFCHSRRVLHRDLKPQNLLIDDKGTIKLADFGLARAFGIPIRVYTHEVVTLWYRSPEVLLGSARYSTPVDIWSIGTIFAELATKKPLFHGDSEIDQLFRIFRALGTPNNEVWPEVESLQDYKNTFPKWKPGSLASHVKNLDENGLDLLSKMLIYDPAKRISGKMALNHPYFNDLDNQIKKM
# T1 sequence (P14635 whole entry partner): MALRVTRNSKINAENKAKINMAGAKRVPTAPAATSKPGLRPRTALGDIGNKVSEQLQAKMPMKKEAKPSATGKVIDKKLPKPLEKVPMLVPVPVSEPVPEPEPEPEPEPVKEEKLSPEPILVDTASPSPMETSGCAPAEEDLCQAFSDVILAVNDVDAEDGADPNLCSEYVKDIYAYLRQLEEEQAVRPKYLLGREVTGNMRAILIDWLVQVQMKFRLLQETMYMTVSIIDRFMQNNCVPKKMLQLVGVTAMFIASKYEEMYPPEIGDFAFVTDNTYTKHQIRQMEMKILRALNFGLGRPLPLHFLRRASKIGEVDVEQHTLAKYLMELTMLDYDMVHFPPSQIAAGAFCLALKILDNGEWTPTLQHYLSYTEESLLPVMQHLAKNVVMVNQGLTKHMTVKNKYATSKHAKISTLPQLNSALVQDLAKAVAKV
# T3 sequence (P11802 whole entry, species assumed): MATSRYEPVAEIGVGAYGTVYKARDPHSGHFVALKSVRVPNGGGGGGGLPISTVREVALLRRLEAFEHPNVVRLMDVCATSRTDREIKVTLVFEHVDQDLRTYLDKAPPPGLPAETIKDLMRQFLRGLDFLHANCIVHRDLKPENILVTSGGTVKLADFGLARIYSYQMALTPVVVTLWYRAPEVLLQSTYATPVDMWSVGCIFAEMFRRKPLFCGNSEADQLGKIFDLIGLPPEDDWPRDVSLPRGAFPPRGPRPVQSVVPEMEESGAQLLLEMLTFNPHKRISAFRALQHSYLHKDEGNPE
# T3 sequence (P24385 whole entry partner, species assumed): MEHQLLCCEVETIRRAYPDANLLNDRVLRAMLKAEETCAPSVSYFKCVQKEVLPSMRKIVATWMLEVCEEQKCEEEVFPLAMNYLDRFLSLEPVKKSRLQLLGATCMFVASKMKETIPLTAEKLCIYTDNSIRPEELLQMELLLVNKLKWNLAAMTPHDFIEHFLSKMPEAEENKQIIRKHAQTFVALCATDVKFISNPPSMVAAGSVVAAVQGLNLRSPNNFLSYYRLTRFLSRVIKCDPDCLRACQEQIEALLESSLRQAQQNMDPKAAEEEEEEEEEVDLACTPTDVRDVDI
SMILES,Cl_obs ([6]; dose i.v. 2 mg/kg),Vss_obs ([6]; dose i.v. 2 mg/kg),HL_Lambda_z ([6]; dose po 50 mg/kg),"AUC(0-inf) [6, 10]","AUC(0-inf) [6, 11]","bioavailability ([6]; po, 50 mg/kg)","IC50 [7, 13]","IC50 ([3]; BT474 cells, 6 days, SRB)","IC50 ([5]; LoVo cells, 3 days, SRB)","IC50 [8, 14]","IC50 ([1]; HCT116 cells, 3 days, SRB)","IC50 ([2]; MCF-7 cells, 3 days, SRB)",melting point,"IC50 [4, 15]",also measured
"CCCOc1ccc(CN/C=C2\C(=O)NC(=O)c3ccc(I)cc32)cc1O [Example 178, (4Z)-4-{[(3-Hydroxy-4-propoxybenzyl)amino]methylene}-6-iodoisoquinoline-1,3(2H,4H)-dione]",33 mL/min/kg,1.5 L/kg,6.1 h,999 ng·h/mL,360 ng·h/mL,14%,,,,,,,,,"IC50 ([1]; HCT116 cells, SRB, three days): 650 nM; IC50 ([2]; MCF-7 cells, SRB, three days): 1800 nM; IC50 ([3]; BT474 cells, SRB, 6 days): 620 nM; IC50 [4, 9]: 13900 nM; IC50 ([5]; LoVo cells, SRB, three days): 740 nM"
"CCCOc1cnc(CNC=C2C(=O)NC(=O)c3ccc(I)cc32)cc1O [Example 364, 4-{[(4-Hydroxy-5-propoxy-pyridin-2-ylmethyl)-amino]-methylene}-6-iodo-4H-isoquinoline-1,3-dione]",3 mL/min/kg,0.2 L/kg,1.8 h,11000 ng·h/mL,17200 ng·h/mL,6.3%,,,,,,,,,"IC50 ([7]; In Vitro Enzyme Assays, read-out: CDK2 IC50): 1600 nM; IC50 ([8]; In Vitro Enzyme Assays, 200 μM ATP, read-out: CDK4 IC50): 30 nM; IC50 ([1]; HCT116 cells, SRB, three days): 730 nM; IC50 ([2]; MCF-7 cells, SRB, three days): 880 nM; IC50 ([3]; BT474 cells, SRB, 6 days): 340 nM; IC50 [4, 9]: 25300 nM; IC50 ([5]; LoVo cells, SRB, three days): 520 nM; Cl_obs [6, 12]: 2.1 mL/min/kg; Vss_obs [6, 12]: 0.1 L/kg; HL_Lambda_z ([6]; dose po 50 mg/kg, second value, (methocel/tween)): 2.4 h; AUC(0-inf) ([6]; iv, 2 mg/kg, dose i.v. 2 mg/kg, second value, (methocel/tween), read-out: aucinf obs (i.v.)): 15800 ng·h/mL; AUC(0-inf) ([6]; po, 50 mg/kg, dose po 50 mg/kg, second value, (methocel/tween), read-out: aucinf obs (po)): 5350 ng·h/mL; bioavailability ([6]; po, 50 mg/kg, second value, (methocel/tween)): 1.4%"
"O=C1NC(=O)c2ccc(I)cc2/C1=C/NCc1ccc(-c2ccoc2)c(O)c1 [Example 506, 4-[(4-Furan-3-yl-3-hydroxy-benzylamino)-methylene]-6-iodo-4H-isoquinoline-1,3-dione]",79 mL/min/kg,6.7 L/kg,2.6 h,423 ng·h/mL,5590 ng·h/mL,53%,4700 nM,290 nM,410 nM,,,,,,
"CN(C)C1CCN(Cc2ccc(N/C=C3\C(=O)NC(=O)c4ccc(-c5ccc(F)cc5)cc43)cc2)C1 (stereo not drawn) [Example 512, (4Z)-4-{[(4-{[3-(Dimethylamino)pyrrolidin-1-yl]methyl}phenyl)amino]methylene}-6-(4-fluorophenyl)isoquinoline-1,3(2H,4H)-dione]",,,,,,,> 50000 nM,2360 nM,3050 nM,200 nM,1190 nM,2700 nM,95 to 96 °C,> 50000 nM,
"O=C1NC(=O)c2ccc(I)cc2/C1=C/NCc1ccc(-n2cccc2)c(O)c1 [Example 514, (4Z)-4-({[3-Hydroxy-4-(1H-pyrrol-1-yl)benzyl]amino}methylene)-6-iodoisoquinoline-1,3(2H,4H)-dione]",,,,,,,15800 nM,590 nM,740 nM,60 nM,1040 nM,2250 nM,230 to 231 °C,> 50000 nM,
"O=C1NC(=O)c2ccc(I)cc2/C1=C/NCc1ccn(-c2ccccc2)c(=O)c1 [Example 517, (4Z)-6-Iodo-4-({[(2-oxo-1-phenyl-1,2-dihydropyridin-4-yl)methyl]amino}methylene)isoquinoline-1,3(2H,4H)-dione]",14 mL/min/kg,0.5 L/kg,0.5 h,2360 ng·h/mL,39 ng·h/mL,0.07%,> 50000 nM and 41500 nM,90 nM,170 nM,270 nM,250 nM,790 nM,,29600 nM,
"CN1CCN(c2ccc(CN/C=C3\C(=O)NC(=O)c4ccc(I)cc43)cc2O)CC1 [Example 521, (4Z)-4-({[3-Hydroxy-4-(4-methylpiperazin-1-yl)benzyl]amino}methylene)-6-iodoisoquinoline-1,3(2H,4H)-dione]",,,,,,,560 nM,7550 nM,5440 nM,20 nM,2570 nM,2600 nM,180 to 181 °C,2600 nM,
"COC[C@@H]1CCCN1c1ccc(CN/C=C2\C(=O)NC(=O)c3ccc(I)cc32)cc1O [Example 523, (4Z)-4-[({3-Hydroxy-4-[(2S)-2-(methoxymethyl)pyrrolidin-1-yl]benzyl}amino)methylene]-6-iodoisoquinoline-1,3(2H,4H)-dione]",,,,,,,31100 nM,5700 nM,6200 nM,200 nM,6400 nM,7300 nM,120 to 121 °C,> 50000 nM,
"O=C1NC(=O)c2ccc(I)cc2/C1=C/NCc1ccn(-c2ccoc2)c(=O)c1 [Example 525, (4Z)-4-[({[1-(3-Furyl)-2-oxo-1,2-dihydropyridin-4-yl]methyl}amino)methylene]-6-iodoisoquinoline-1,3(2H,4H)-dione]",12 mL/min/kg,0.4 L/kg,3.4 h,2750 ng·h/mL,12000 ng·h/mL,17%,2600 nM,140 nM,450 nM,60 nM,710 nM,710 nM,,11600 nM,
"CCCOc1cnc(CN/C=C2\C(=O)NC(=O)c3ccc(C(C)(C)C)cc32)cc1O [Example 530, 6-tert-Butyl-4-{[(4-hydroxy-5-propoxy-pyridin-2-ylmethyl)-amino]-methylene}-4H-isoquinoline-1,3-dione]",15 mL/min/kg,0.2 L/kg,5.3 h,2240 ng·h/mL,7200 ng·h/mL,13%,960 nM,240 nM,280 nM,,430 nM,700 nM,162 to 178 °C (dec.),,
"CC(C)(C)c1ccc2c(c1)/C(=C/NCc1ccc(-c3ccoc3)c(O)c1)C(=O)NC2=O [Example 535, 6-tert-Butyl-4-[(4-furan-3-yl-3-hydroxy-benzylamino)-methylene]-4H-isoquinoline-1,3. -dione]",140 mL/min/kg,4.1 L/kg,1.9 h,238 ng·h/mL,1240 ng·h/mL,21%,4000 nM,510 nM,630 nM,20 nM,860 nM,2000 nM,,13100 nM,
"O=C1NC(=O)c2ccc(I)cc2/C1=C/NCc1ccn(-c2ccsc2)c(=O)c1 [Example 539, (4Z)-6-Iodo-4-[({[2-oxo-1-(3-thienyl)-1,2-dihydropyridin-4-yl]methyl}amino)methylene]isoquinoline-1,3(2H,4H)-dione]",21 mL/min/kg,0.3 L/kg,0.8 h,1560 ng·h/mL,44 ng·h/mL,0.12%,41500 nM,,,290 nM,,,,> 50000 nM,IC50 [1]: 340 nM; IC50 [2]: 240 nM; IC50 [3]: 330 nM; IC50 [5]: 160 nM

# Source: US7713994B2 (Wyeth LLC, priority 2005, dated 2010)
